pKi: −log10 of the molar value.
Tests used:
Thymidylate synthase [1] = molecular target: Thymidylate synthase (Mus musculus, UniProt P07607); test: Inhibitory effect on murine leukemia (L1210) thymidylate synthase
Thymidylate synthase [2] = molecular target: T1, Thymidylate synthase (Lactobacillus casei, UniProt P00469); test: Inhibitory effect on Lactobacillus casei thymidylate synthase; design: species or system Lacticaseibacillus casei
T1 sequence (P00469 whole entry): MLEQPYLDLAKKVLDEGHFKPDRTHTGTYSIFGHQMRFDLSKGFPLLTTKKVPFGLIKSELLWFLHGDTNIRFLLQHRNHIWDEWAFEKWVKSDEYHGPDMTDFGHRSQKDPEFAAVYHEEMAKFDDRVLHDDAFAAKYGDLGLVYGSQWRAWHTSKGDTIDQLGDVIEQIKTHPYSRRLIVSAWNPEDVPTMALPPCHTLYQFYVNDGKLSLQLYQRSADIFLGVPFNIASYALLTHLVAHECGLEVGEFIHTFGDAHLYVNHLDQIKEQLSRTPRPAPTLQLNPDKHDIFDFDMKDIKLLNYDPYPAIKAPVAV

Thymidylate synthase [3] = molecular target: Thymidylate synthase (Homo sapiens, UniProt P04818); test: Inhibitory effect on human lymphoblast (Molt/4F) thymidylate synthase
Sequence of Thymidylate synthase (Homo sapiens, UniProt P04818) (P04818 whole entry): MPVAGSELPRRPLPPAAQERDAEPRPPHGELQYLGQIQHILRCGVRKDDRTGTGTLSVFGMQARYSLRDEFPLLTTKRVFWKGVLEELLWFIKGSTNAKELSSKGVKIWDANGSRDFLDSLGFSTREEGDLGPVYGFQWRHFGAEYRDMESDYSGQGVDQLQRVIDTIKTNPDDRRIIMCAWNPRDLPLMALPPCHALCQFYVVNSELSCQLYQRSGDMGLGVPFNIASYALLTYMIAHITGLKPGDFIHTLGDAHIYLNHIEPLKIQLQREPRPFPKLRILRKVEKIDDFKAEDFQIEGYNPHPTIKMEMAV

Sequence of Thymidylate synthase (Mus musculus, UniProt P07607) (P07607 whole entry): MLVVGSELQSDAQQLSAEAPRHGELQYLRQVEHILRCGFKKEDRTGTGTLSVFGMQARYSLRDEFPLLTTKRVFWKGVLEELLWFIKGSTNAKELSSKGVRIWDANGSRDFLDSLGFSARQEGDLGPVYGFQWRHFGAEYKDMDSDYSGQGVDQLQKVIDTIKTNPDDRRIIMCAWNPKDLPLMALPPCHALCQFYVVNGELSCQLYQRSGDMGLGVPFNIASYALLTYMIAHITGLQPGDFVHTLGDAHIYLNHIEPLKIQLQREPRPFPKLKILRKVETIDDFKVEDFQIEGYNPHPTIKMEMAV

Compound | pKi (Thymidylate synthase [1]) | pKi (Thymidylate synthase [2]) | pKi (Thymidylate synthase [3])
O=c1[nH]c(=O)n([C@H]2C[C@H](O)[C@@H](COP(=O)(O)O)O2)cc1-c1ccc([N+](=O)[O-])cc1 | 4.32 | 5.19 | –
Cc1ccc(-c2cn([C@H]3C[C@H](O)[C@@H](COP(=O)(O)O)O3)c(=O)[nH]c2=O)cc1 | 5.08 | – | –
O=c1[nH]c(=O)n([C@H]2C[C@H](O)[C@@H](COP(=O)(O)O)O2)cc1-c1ccc(OCc2ccccc2)cc1 | 4.95 | – | –
O=c1[nH]c(=O)n([C@H]2C[C@H](O)[C@@H](COP(=O)(O)O)O2)cc1-c1ccc(O)cc1 | 3.75 | 5.12 | 3.87
CN(C)c1ccc(-c2cn([C@H]3C[C@H](O)[C@@H](COP(=O)(O)O)O3)c(=O)[nH]c2=O)cc1 | 4.32 | 5.85 | –
N#Cc1ccc(-c2cn([C@H]3C[C@H](O)[C@@H](COP(=O)(O)O)O3)c(=O)[nH]c2=O)cc1 | 4.01 | 5.06 | 3.94
O=c1[nH]c(=O)n([C@H]2C[C@H](O)[C@@H](COP(=O)(O)O)O2)cc1-c1ccc(C(F)(F)F)cc1 | 4.03 | 5.31 | –
NC(=O)c1ccc(-c2cn([C@H]3C[C@H](O)[C@@H](COP(=O)(O)O)O3)c(=O)[nH]c2=O)cc1 | 3.95 | 5.25 | 3.92
COC(=O)c1ccc(-c2cn([C@H]3C[C@H](O)[C@@H](COP(=O)(O)O)O3)c(=O)[nH]c2=O)cc1 | 4.34 | 5.40 | 3.99

The remaining compounds from weak to strong by pKi (Thymidylate synthase [1]), led by results:

pKi (Thymidylate synthase [1]) | pKi (Thymidylate synthase [2]) | pKi (Thymidylate synthase [3]) | Compound
4.48 | 5.92 | – | COc1ccc(-c2cn([C@H]3C[C@H](O)[C@@H](COP(=O)(O)O)O3)c(=O)[nH]c2=O)cc1
4.53 | 5.74 | – | O=c1[nH]c(=O)n([C@H]2C[C@H](O)[C@@H](COP(=O)(O)O)O2)cc1-c1ccc(Br)cc1
4.91 | 6.02 | – | O=c1[nH]c(=O)n([C@H]2C[C@H](O)[C@@H](COP(=O)(O)O)O2)cc1-c1ccccc1
4.95 | 5.95 | – | Nc1ccc(-c2cn([C@H]3C[C@H](O)[C@@H](COP(=O)(O)O)O3)c(=O)[nH]c2=O)cc1

Reference: ChEMBL document CHEMBL1124237, “Linear free energy relationship studies of enzyme active site binding: thymidylate synthase” (J Med Chem, 1988)
